Laboratory results from patent US20230303623A1, “PEPTIDES AND METHODS OF USE” (REALTA LIFE SCIENCES, INC., priority 2020, published 2023).
“Also recorded” adds a separate entry of the source.

What was measured:
[1] = target: T1, VEGF (Homo sapiens, UniProt P15692); experiment: VEGF Bioassay (Promega), VEGF signaling via VEGFR-2 (KDR); format: cell-based
T1 construct: Promega (bioassay)
T1 sequence (P15692 27-191 isoform P15692-4): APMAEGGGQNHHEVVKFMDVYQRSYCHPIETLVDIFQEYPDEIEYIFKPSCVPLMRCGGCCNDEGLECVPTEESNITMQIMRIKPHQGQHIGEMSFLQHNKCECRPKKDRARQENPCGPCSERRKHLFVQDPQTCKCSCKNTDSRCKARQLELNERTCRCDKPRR
From the text: Luminescence was detected in luminometer plate reader.
(§1) Angiogenesis, or the formation of new blood vessels from the established vasculature, is an essential element in tumor growth and metastasis formation. Inhibiting tumor angiogenesis is considered a major therapeutic strategy in oncology. […] The bioluminescent signal is detected in a luminometer.

[2] = system: HUVECs; experiment: LPS-induced non-VEGF mediated angiogenesis (tube formation) in HUVECs; format: cell-based, human; conditions: peptides 10 mg/ml; LPS 10 ug/ml; overnight
Method: HUVEC cells were incubated with either RLS-0122, RLS-0150, RLS-0154, RLS-0164 and RLS-0168 followed by LPS addition and plating onto extracellular matrix. After overnight incubation, evidence of angiogenesis was determined by fluorescence microscopy. Cells receiving LPS and not receiving LPS served as positive and negative controls for angiogenesis.
Currently there are no drugs on the market to inhibit non-VEGF mediated angiogenesis. To assess whether the PIC1 peptides could inhibit non-VEGF mediated angiogenesis, the inventors developed a model of angiogenesis using human umbilical endothelial vein cells (HUVECs) in which addition of lipopolysaccharide (LPS) induces angiogenesis. HUVECs were first incubated with Cell Trace Violet dye, followed by addition of PIC1 peptides (10 mg/ml) for 1 hour at 37° C. and then treated with 10 ug/ml of LPS and placement on an extracellular matrix to promote angiogenesis. Cells were incubated overnight at 37° C. in a humidified CO2 incubator. Cells were then visualized for tube formation indicative of angiogenesis by fluorescence microscopy.

[3] = system: purified human Pan T-cells; experiment: T-cell exhaustion protocol (repeated CD3/CD28 Dynabead stimulation); format: cell-based; conditions: ELISA; for Caspase 3/7 levels, in words: peptides 2 mg/ml at each stimulation, day 8; for IFN-gamma levels in cell supernatants, in words / IL-2 levels in cell supernatants, in words: peptides 2 mg/ml, stimulation 2
Method: Purified human pan-T-cells were subject to stimulation with Dynabeads every 48 hours over the period of 8 days with cells also receiving PIC1 peptides (2 mg/ml) at each stimulation. Cells not receiving Dynabeads were run in parallel to assess background levels of Caspase 3/7 signal. At the eighth day, cells were harvested, and the levels of Caspase 3/7 determined by ELISA.
Purified human pan-T-cells were subject to stimulation with Dynabeads every 48 hours over the period of 8 days with cells also receiving PIC1 peptides (2 mg/ml) at each stimulation. Cell supernatants were collected at each stimulation and levels of IL-2 and IFN-gamma assayed by ELISA.
T-cell exhaustion is a form of T-cell dysfunction that occurs in cancer. It is generally defined by poor effector function, reduction in cytokine release (e.g., IL-2, TNF-alpha, IFN-gamma), sustained expression of inhibitory receptors (e.g., PD-1, LAG-3, CD244, CD160) with the progressive loss of effector function due to overstimulation. Exhaustion can prevent optimal control of tumor growth. Exhausted T cells are prevalent in the tumor microenvironment (TME) and can lead to T-cell apoptosis. T-cell exhaustion is reversible and pharmaceutical inhibition of T-cell exhaustion has been considered a promising strategy by many cancer researchers. To ascertain if PIC1 peptides could reverse T-cell exhaustion and increase T cell viability and effector function, a T-cell exhaustion protocol was developed. To induce T-cell exhaustion, purified human Pan T-cells were stimulated with T-Activator CD3/CD28 Dynabeads and cells were washed and re-stimulated every 48 hours. PIC1 peptides were added to the cells after each stimulation with Dynabeads. After three to four stimulations, cells were harvested for readouts which consisted of assessing T-cell apoptosis by measuring Caspase 3/7 levels and production of cytokines IL-2 and IFN-gamma, which are indicative of T-cell functionality. […] To further evaluate if PIC1 peptides could restore T-cell functionality in cells that have undergone the exhaustion protocol, the inventors next assessed production of cytokines IL-2 and IFN-gamma. Supernatants from the cells after each stimulation was collected and the cytokines measured by ELISA. […] The lower level of IFN-gamma signal was consistently seen in this assay.

[4] = target: T1, VEGF; experiment: VEGF binding ELISA plate-based assay; conditions: peptides 1 mg/ml
Method: A fixed amount of PIC1 peptides (1 mg/ml) were added to the plates followed by a rabbit polyclonal antibody that recognizes the peptides and then a secondary anti-rabbit antibody conjugated with HRP. The plate was then developed by addition of TMB as the substrate for the colorimetric assay.
as §1

[5] = target: T2, CTLA-4 (Homo sapiens, UniProt P16410); experiment: CTLA-4 Blockade Bioassay (Promega); format: cell-based; design: host or cells: Jurkat T cells (CTLA-4 effector cells) co-cultured with aAPC/Raji cells; conditions: increasing concentrations
T2 sequence (P16410 36-223): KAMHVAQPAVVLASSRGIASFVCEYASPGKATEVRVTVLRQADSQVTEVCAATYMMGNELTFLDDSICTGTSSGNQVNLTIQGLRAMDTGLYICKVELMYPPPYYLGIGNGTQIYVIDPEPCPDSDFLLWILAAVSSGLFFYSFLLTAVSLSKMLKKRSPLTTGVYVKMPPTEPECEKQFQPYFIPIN
Method: CTLA-4 effector cells were incubated with aAPC/Raji Cells in the absence or presence of increasing concentrations of anti-CTLA-4 antibody (positive control), RLS-0122, RLS-0150, RLS-0154, RLS-0164 and RLS-0168 and RLS-0088 (negative control). Luminescence was detected in luminometer plate reader. The drop-off in signal with the test peptides at high concentrations is due to cell death as a result of peptide buffer effects on the cells.
To assess if PIC1 peptides could block CTLA-4 inhibitory activity in a cell-based assay, select peptides were screened in the CTLA-4 Blockade Bioassay (Promega). This bioluminescent cell-based assay can be used to measure the potency and stability of molecules targeting CTLA-4 and consists of two genetically engineered cell lines: CTLA-4 effector cells: Jurkat T cells expressing human CTLA-4 and a luciferase reporter driven by a native promoter which responds to TCR/CD28 activation and aAPC/Raji Cells: Raji cells expressing an engineered cell surface protein designed to activate cognate TCRs in an antigen-independent manner and endogenously expressing CTLA-4 ligands CD80 and CD86. When the two cell types are co-cultured, CTLA-4 competes with CD28 for their shared ligands, CD80 and CD86 and thus inhibits CD28 pathway activation and promoter-mediated luminescence. Addition of a molecule that blocks the interaction of CTLA-4 with its ligands CD80 and CD86 results in promoter-mediated luminescence.

[6] = Total Antioxidant Capacity (TAC) assay; conditions: highest peptide concentration 1.5 mM; compared to parent peptide
Method: As previously reported, the TAC (Total Antioxidant Capacity) Assay (Cell Biolabs, Inc, San Diego, CA) was used to measure the antioxidant capacity of the PIC1 variants based on the reduction of copper (II) to copper (I). The kit protocol was performed per the manufacturer's recommendations.
The antioxidant properties for the PIC1 variants were evaluated in a Total Antioxidant Capacity (TAC) assay, as previously reported. Total antioxidant activity over a range of peptide concentrations were determined for the stapled and the D-amino acid peptides based on the PA-I8Sar and PA-C9Sar backbones (FIG. 4A-4B), with the activity of the highest peptide concentration reported (1.5 mM) (FIG. 5A-5C).

[7] = target: T3, PD-1 binding to PD-L1 (Homo sapiens, UniProt Q9NZQ7); experiment: PD-1:PD-L1 inhibitor screening ELISA; conditions: FIG. 8
T3 construct: purchased
T3 sequence (Q9NZQ7 19-238 limits assumed): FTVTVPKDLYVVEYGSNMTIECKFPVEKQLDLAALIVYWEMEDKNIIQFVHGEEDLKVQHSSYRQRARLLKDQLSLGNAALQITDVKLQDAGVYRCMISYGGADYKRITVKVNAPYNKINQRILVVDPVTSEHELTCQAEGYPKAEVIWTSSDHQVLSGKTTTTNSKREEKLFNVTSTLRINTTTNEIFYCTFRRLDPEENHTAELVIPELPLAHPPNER
Method: PIC1 peptides were allowed to bind to immobilized PD-L1 on the surface of the plate. Biotinylated PD-1 was then added and bound PD-1 detected by streptavidin-HRP reagent followed by TMB as the substrate for the colorimetric assay.
This inhibitor screening ELISA pair was designed to facilitate the identification and characterization of new PD-1 pathway inhibitors. In this assay, biotinylated human PD-1 was bound to immobilized human PD-L1 and a colorimetric sandwich ELISA platform was used. Plates were coated with human PD-L1 followed by incubation with various PIC1 peptides. Human PD-1-Biotin was then allowed to bind the coated human PD-L1 followed by addition of streptavidin-HRP. TMB was then added as the colorimetric HRP substrate and the wells of the plate analyzed in a plate reader at an absorbance of 450 nm.
The immune checkpoint pathway is an area of significant interest in cancer research. PD-1 is one of the best characterized checkpoint proteins. The binding between PD-1 and its ligand PD-L1 suppresses T-cell activation and allows cancer cells to escape from body's immune surveillance. Therefore, the pharmaceutical inhibition of PD-1 or its ligand has been considered a promising strategy by many cancer researchers. To ascertain if these PIC1 derivatives could inhibit PD-1 interaction with PD-L1, a commercial ELISA kit was utilized. […]

[8] = without PEGylation; as described in U.S. Pat. No. 10,005,818; cited from earlier work

| Substance | inhibition of VEGF signaling via VEGFR-2 (luminescence), in words [1] | tube formation / angiogenesis inhibition, in words [2] | Caspase 3/7 levels, in words ([3]; listed as RLS-0164) | IFN-gamma levels in cell supernatants, in words ([3]; listed as RLS-0164) | IL-2 levels in cell supernatants, in words ([3]; listed as RLS-0164) | binding to VEGF, in words [4] | inhibition of CTLA-4 mediated cell signaling (increase in luminescence), in words ([5]; listed as RLS-0164) | total antioxidant capacity, in words [6] | Caspase 3/7 levels, in words ([3]; listed as RLS-0168) | IFN-gamma levels in cell supernatants, in words ([3]; listed as RLS-0168) | IL-2 levels in cell supernatants, in words ([3]; listed as RLS-0168) | inhibition of CTLA-4 mediated cell signaling (increase in luminescence), in words ([5]; listed as RLS-0168) | inhibition of binding of PD-1 to PD-L1, in words [7] | solubility in water [8] | inhibition of CTLA-4 mediated cell signaling (increase in luminescence), in words [5] |
| --- | --- | --- | --- | --- | --- | --- | --- | --- | --- | --- | --- | --- | --- | --- | --- |
| IALILEPI(Sar)dCQERAA (IALILEPIXCQERAA; D-Cys; sarcosine; MOD_RES (9)..(9) Sarcosine; MOD_RES (10)..(10) D-amino acid) [PA-0164] | did not inhibit signaling | no detectable tube formation | decreased levels; also recorded: reduced levels | showed IL-2 and IFN-gamma signal at stimulation 2; also recorded: increased levels | showed IL-2 and IFN-gamma signal at stimulation 2; also recorded: increased levels | binding with high affinity | showed inhibitory activity; also recorded: able to inhibit CTLA-4 mediated cell signaling | enhanced activity | – | – | – | – | – | – | – |
| IALILEPI(Sar)CQERdAA (IALILEPIXCQERAA; D-Ala; sarcosine; MOD_RES (9)..(9) Sarcosine; MOD_RES (14)..(14) D-amino acid) [PA-0168] | did not inhibit signaling | no detectable tube formation | – | – | – | – | – | – | very low to undetectable levels; also recorded: reduced levels | detectable at stimulation 2; also recorded: increased levels | detectable IL-2 at stimulation 2; also recorded: increased levels | showed inhibitory activity; also recorded: able to inhibit CTLA-4 mediated cell signaling | – | – | – |
| IALILEP(Sar)CCQERAA (IALILEPXCCQERAA; sarcosine at position 8; MOD_RES (8)..(8) Sarcosine) [PA-0088, parent peptide, sarcosine at position 8 of PIC1] | – | – | – | – | – | – | – | – | – | – | – | – | did not inhibit | water soluble without PEGylation | no inhibitory over background |
